The subject of assay [1] is PHA stimulated lymphocytes. Nature of the assay: Stimulation by phytohemagglutinin (PHA) of lymphocytes from Hodgkin's disease patients. The class given is cell-based, human (patients affected by Hodgkin's disease). To be noted: for effect on the PHA response: Ib-4 already at 0.1 γ/ml, methisoprinol at 200-400 γ/ml. The source says:
In FIG. 1, the effects of compound (Ib-4) are shown in comparison with methisoprinol on the stimulation by phytohemagglutinin (PHA) of lymphocytes extracted by patients affected by Hodgkin's disease and off-therapy since, at least, 17 months. The PHA response of lymphocytes of these patients are below normal range.
The in vitro effect of (Ib, 4) and methisoprinol on the stimulation by PHA of lymphocytes was studied by cultivating PHA stimulated lymphocytes in the presence of these compounds at different doses: methisoprinol at 100, 200, 400 γ/ml; (Ib-4) at 0.1, 0.5, 1 and 5 γ/ml.

The subject of assay [2] is autologous lymphocytes stimulated by concanavalin A. The assay can be described thus: Suppressor cell effect: proliferative response of autologous lymphocytes stimulated by concanavalin A. As to conditions: 0.1 to 1.5 μg/ml; 48 h drug incubation; concanavalin A 3 days. Format: cell-based, human (healthy volunteers). The protocol:
(§1) The effect of (Ib-4) on the suppressor cell has also been studied using lymphocytes from healthy volunteers, incubated for 48 hours with different drug concentrations then washed and incubated either with autologous lymphocytes stimulated by concanavalin A for 3 days or with allogeneic mitomycin-treated lymphocytes for 5 days (Mixed Lymphocytes Reaction): (Ib-4), at concentrations between 0.1 and 1.5 μg/ml, gave an inhibition of the proliferative response of about 60% in comparison with controls.

Assay [3] has as its system allogeneic mitomycin-treated lymphocytes. Nature of the assay: Suppressor cell effect: Mixed Lymphocytes Reaction. Format: cell-based, human (healthy volunteers). As to conditions: 0.1 to 1.5 μg/ml; 48 h drug incubation; mixed lymphocytes 5 days. The procedure: as §1
The test system of assay [4] is spleen cells from BALB/C mice. Nature of the assay: Incorporation of labelled thymidine stimulated by PHA or LPS in spleen cells. Format: cell-based, mouse (BALB/C). Also noted: Thymid. inc.: unit not given here. The procedure: Ib-4 is also active, at doses ranging from 0.001 to 40 μg/ml, in inhibiting the incorporation of labelled thymidine stimulated by phytohemagglutinin (PHA) or lypopolysaccharides (LPS), in spleen cells from BALB/C mice 8-10 weeks old. The inhibition of the proliferation in vitro is dose-dependent and it is probably due to activation of suppressor cell mechanism. In the following table the results of thymidine incorporation in a 10^6 cells/ml culture have been listed.

Assay [5] concerns polymorphonuclear leucocytes. Nature of the assay: Polymorphonuclear (PMN) membrane-stimulated oxidative metabolic activity (superoxide production). Format: cell-based. The procedure: In FIG. 2 the results of the study of the effect of (Ib-4) on the polymorphonuclear (PMN) […] membrane-stimulated oxidative metabolic activity are reported: polymorphonuclear leucocytes (2.5×10^4 /ml) in phosphate buffer solution (PBS) were incubated for 15' at 37° C. with ferricytochrome C (1.5 mg/ml) in the presence or absence of superoxide dismutase (SOD) (0.125 mg/ml) after the addition of 50 μl of stimulating agent.
The amount of reduced cytochrome C in che cell free supernatant was determined spectrophotometrically at 550 nm and the O2^- release calculated according to a standard formula. Appropriate control tubes contained fixed doses of (Ib-4) (from 0.01 γ/ml to 200 γ/ml).

The test system of a further assay is T-lymphocytes. The assay can be described thus: Ability of T-lymphocytes to form "active" E-rosettes. The class given is cell-based. The procedure: The effect of the compounds object of this invention on the ability of T-lymphocytes to form "active" E-rosettes, has also been studied (Pasino e coll., Boll. Ist. Sieroter, Mil. 60, 4, 297-301, 1981).
Lymphocytes were incubated at 4° for 24 hours, then isolated and incubated for 90 min. in the presence or absence of different concentrations of the drug prior to the assay. Data were expressed as % of cells forming rosettes: as an example, compound (Ib-2) gave an enhancement of the percentage from 35 to 50%, at concentrations from 1 and 3 μg/ml; higher concentrations, the percentage of active E-rosettes decreased.

Data on 3 compounds can be found in patent publication US4567182A, “Compounds endowed with immunomodulating activity” (Co Pharma Corporation s.r.l., priority 1981, dated 1986).

On to methisoprinol [reference compound], for which the “effect on the PHA response” value in assay [1] is on record as “a stimulating effect which is less than that produced by (Ib-4)”. Besides, the “dose producing enhancement of the PHA response” value in assay [1] (in vitro, lymphocytes of Hodgkin's disease patients off-therapy) fell in the range of 200 to 400 µg/mL.

Turning to `N=C(NCCC[C@H](N)C(=O)O)NC(=O)CCC(=O)OCCn1cnc2c(O)ncnc21` [Ib-4, N-{3-[2-(6-hydroxypurinyl-9)-ethoxycarbonyl]propionyl}-N'-(4-carboxy-4-amino-butyl)guanidine], in assay [1] (Homo sapiens, Lymphocyte, in vitro, lymphocytes of Hodgkin's disease patients off-therapy, read-out: dose producing enhancement of the PHA response), the minimal effective concentration is not above 0.1 µg/mL. In assay [1], the “effect on the PHA response” value was “marked enhancement of the PHA response”. For the same compound, the “inhibition of the proliferative response in comparison with controls” value in assay [2] and in assay [3] was “about 60%” throughout. For the same compound, the Thymid. inc. was 729+/-51 in assay [4] (LPS (printed LPSD), drug 0.1 μg/ml, control without drug 15631+/-215); 4600+/-85 in assay [4] (LPS, drug 0.001 μg/ml, control without drug 15631+/-215); 435+/-113 in assay [4] (LPS, drug 0.01 μg/ml, control without drug 15631+/-215); 665+/-19 in assay [4] (LPS, drug 1 μg/ml, control without drug 15631+/-215); 627+/-40 in assay [4] (LPS, drug 2.5 μg/ml, control without drug 15631+/-215); 445+/-44 in assay [4] (LPS, drug 5 μg/ml, control without drug 15631+/-215). Besides, the Thymid. inc. in assay [4] (LPS, drug 10 μg/ml, control without drug 15631+/-215) was 385+/-38; in assay [4] (LPS, drug 15 μg/ml, control without drug 15631+/-215) it was 405+/-51; in assay [4] (LPS, drug 20 μg/ml, control without drug 15631+/-215), 385+/-38; in assay [4] (LPS, drug 40 μg/ml, 10^6 cells/ml, control without drug 15631+/-215) it was 329+/-23; in assay [4] (PHA, drug 0.001 μg/ml, control without drug 3089+/-177) it was 840+/-87; in assay [4] (PHA, drug 0.01 μg/ml, control without drug 3089+/-177), 850+/-61. For the same compound, the Thymid. inc. is 721+/-77 in assay [4] (PHA, drug 0.1 μg/ml, control without drug 3089+/-177); 316+/-78 in assay [4] (PHA, drug 1 μg/ml, control without drug 3089+/-177); 250+/-34 in assay [4] (PHA, drug 2.5 μg/ml, control without drug 3089+/-177); 193+/-50 in assay [4] (PHA, drug 5 μg/ml, control without drug 3089+/-177); 146+/-19 in assay [4] (PHA, drug 10 μg/ml, control without drug 3089+/-177); 141+/-40 in assay [4] (PHA, drug 15 μg/ml, control without drug 3089+/-177). The Thymid. inc. is listed as 241+/-16 in assay [4] (PHA, drug 20 μg/ml, control without drug 3089+/-177) and 159+/-13 in assay [4] (PHA, drug 40 μg/ml, 10^6 cells/ml, control without drug 3089+/-177). Further, in assay [4] (PHA or LPS stimulated, 0.001 to 40 μg/ml), the “inhibition of the proliferation in vitro” value is on record as “dose-dependent”. Further, the “enhancement in the superoxide production” value in assay [5] (1 γ/ml, T-test for paired data) is on record as “statistically significant enhancement in the superoxide production”. For the same compound, in assay [5] (dosages higher than 1 γ/ml (up to 200 γ/ml)), the “O2- production at higher dosages” value is recorded as “gradual decrease of the O2^- production”.

As to `CC(NC(=O)CCC(=O)OCCn1cnc2c(O)ncnc21)C(=O)O` (racemic) [Ib-2, 6-Hydroxy-9-{2-[2-(1-carboxy)ethylaminocarbonylethyl]carbonyloxyethyl}purine], the “% of cells forming active E-rosettes” value in the assay on T-lymphocytes (1 and 3 μg/ml, enhanced from 35%, 90 min incubation) is given as 50%. Further, in the assay with T-lymphocytes (concentrations higher than 1 and 3 μg/ml), the “percentage of active E-rosettes at higher concentrations” value is “decreased”.
